Results from patent US10391095B2, “DNA-PK inhibitors” (Vertex Pharmaceuticals Incorporated, priority 2012, dated 2019).

Biological target: DNA-PK (Homo sapiens, UniProt P78527)
Experiment: DNA-PK inhibition assay (radiometric, 33P-ATP)
Type: biochemical
Conditions: 100 μM ATP, competitive tight-binding fit
Outline: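 33P transfer from 100 µM ATP to a DNA-PK peptide (0.8 mg/mL) is measured after 45 min, using about 6 nM enzyme activated by 10 µg/mL sheared dsDNA (HEPES pH 7.5, MgCl2, DTT). Filter-bound counts fitted to a competitive tight-binding inhibition model give Ki.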

SMILES | Ki [nM]
CNC(=O)c1ccc([C@H](C)CNc2cc(-c3ccc(N(C)C4CCN(C)CC4)nc3)ncn2)c(OC)c1 [Compound 347] | < 30
CNC(=O)c1ccc([C@H](C)CNc2cc(-c3ccc(NC4CCN(C)CC4)nc3)ncn2)c(OC)c1 [Compound 348] | < 30
CNC(=O)c1ccc([C@H](C)CNc2cc(-c3ccc(CN)cc3)ncn2)c(OC)c1 [Compound 351] | < 30
CNC(=O)c1ccc([C@H](C)CNc2cc(-c3ccc(NC(CO)CO)nc3)ncn2)c(OC)c1 [Compound 353] | < 30
CNC(=O)c1ccc([C@H](C)CNc2cc(-c3ccc(Nc4nc[nH]n4)nc3)ncn2)c(OC)c1 [Compound 354] | < 30
CNCCCNc1ccc(-c2cc(NC[C@@H](C)c3ccc(C(=O)NC)cc3OC)ncn2)cn1 [Compound 356] | < 30
CNC(=O)c1ccc([C@H](C)CNc2cc(-c3ccc(NC)nc3)ncn2)c(OC)c1 [Compound 358] | < 30
CCCNc1ccc(-c2cc(NC[C@@H](C)c3ccc(C(=O)NC)cc3OC)ncn2)cn1 [Compound 361] | < 30
CNC(=O)c1ccc([C@H](C)CNc2cc(-c3ccc(NCC4CC4)nc3)ncn2)c(OC)c1 [Compound 364] | < 30
CNC(=O)c1ccc([C@H](C)CNc2cc(-c3ccc(N(C)CCOC)nc3)ncn2)c(OC)c1 [Compound 370] | < 30
CNC(=O)c1cc(OC)c(C(C)CNc2cc(-c3ccc(C)nc3)ncn2)cn1 (stereo not shown) [Compound 376] | < 30
COc1cc(C=O)ccc1C(C)CNc1cc(-c2ccc(C)nc2)ncn1 (stereo not shown) [Compound 378] | < 30
C#CCNc1ccc(-c2cc(NC[C@@H](C)c3ccc(C(=O)NC)cc3OC)ncn2)cn1 [Compound 385] | < 30
CNC(=O)c1ccc([C@H](C)CNc2cc(-c3ccc(NCC(F)F)nc3)ncn2)c(OC)c1 [Compound 390] | < 30
CNC(=O)c1ccc([C@H](C)CNc2cc(-c3ccc(N4CCC4)nc3)ncn2)c(OC)c1 [Compound 395] | < 30
Cc1ccc(-c2cc(NCC(C)c3cccc4nsnc34)ncn2)cn1 (stereo not shown) [Compound 398] | < 30
CC(CNc1cc(-c2cnc3c(cnn3CCO)c2)ncn1)c1csc2cccnc12 (stereo not shown) [Compound 399] | < 30
CC(CNc1cc(-c2cnc3c(cnn3CCO)c2)ncn1)c1cccc2nccnc12 (stereo not shown) [Compound 401] | < 30
CC(CNc1cc(-c2cnc3c(cnn3CCO)c2)ncn1)c1cccc2scnc12 (stereo not shown) [Compound 402] | < 30
COc1cc(C(=O)NCC(F)F)ccc1[C@H](C)CNc1cc(-c2ccc(C)nc2)ncn1 [Compound 405] | < 30
Cc1ccc(-c2cc(NCC(C)c3cncc4nccnc34)ncn2)cn1 (stereo not shown) [Compound 407] | < 30
C[C@H](CNc1cc(-c2cnc3c(cnn3C3COC3)c2)ncn1)c1ccnc2c1OCC2 [Compound 417] | < 30
CC(CNc1cc(-c2cnc3c(cnn3CCO)c2)ncn1)c1cncc2c1OCC2 (stereo not shown) [Compound 419] | < 30
CC(CNc1cc(-c2cnc3c(cnn3C3COC3)c2)ncn1)c1cncc2c1OCC2 (stereo not shown) [Compound 420] | < 30
COc1cc(Br)ccc1C(C)CNc1cc(-c2ccc(C)nc2)ncn1 (stereo not shown) [Compound 423] | < 30
Cc1ccc(-c2cc(NCC(C)c3cccc4nc(C)c(C)nc34)ncn2)cn1 (stereo not shown) [Compound 434] | < 30
C[C@H](CNc1cc(-c2cnc3[nH]ncc3c2)ncn1)c1ccnc2c1OCC2 [Compound 437] | < 30
C[C@H](CNc1cc(-c2cnc3c(cnn3C)c2)ncn1)c1ccnc2c1OCC2 [Compound 438] | < 30
CNC(=O)c1ccc(C(C)CNc2cc(-c3cnc4c(cnn4CCC#N)c3)ncn2)c(OC)c1 (stereo not shown) [Compound 442] | < 30
CC(CNc1cc(-c2cnc3c(cnn3CCO)c2)ncn1)c1ccnc2c1OCCO2 (stereo not shown) [Compound 444] | < 30

More lines, now with the values ahead:

Ki [nM] | SMILES
< 30 | CNC(=O)c1ccc([C@H](C)CNc2cc(-c3ccc(NCCCO)nc3)ncn2)c(OC)c1 [Compound 355]
< 30 | CNC(=O)c1ccc([C@H](C)CNc2cc(-c3ccc(N(C)C)nc3)ncn2)c(OC)c1 [Compound 359]
< 30 | CCNc1ccc(-c2cc(NC[C@@H](C)c3ccc(C(=O)NC)cc3OC)ncn2)cn1 [Compound 360]
< 30 | CCN(C)c1ccc(-c2cc(NC[C@@H](C)c3ccc(C(=O)NC)cc3OC)ncn2)cn1 [Compound 362]
< 30 | CNC(=O)c1ccc([C@H](C)CNc2cc(-c3ccc(N4CCCC4)nc3)ncn2)c(OC)c1 [Compound 363]
< 30 | CNC(=O)c1ccc([C@H](C)CNc2cc(-c3ccc(N(C)CCO)nc3)ncn2)c(OC)c1 [Compound 365]
< 30 | CNC(=O)c1ccc([C@H](C)CNc2cc(-c3ccc(N4CC=CCC4)nc3)ncn2)c(OC)c1 [Compound 366]
< 30 | CNC(=O)c1ccc([C@H](C)CNc2cc(-c3ccc(N4CCOCC4)nc3)ncn2)c(OC)c1 [Compound 367]
< 30 | CNCCN(C)c1ccc(-c2cc(NC[C@@H](C)c3ccc(C(=O)NC)cc3OC)ncn2)cn1 [Compound 368]
< 30 | CNC(=O)c1ccc([C@H](C)CNc2cc(-c3ccc(NCCN(C)C)nc3)ncn2)c(OC)c1 [Compound 369]
< 30 | CNC(=O)c1ccc([C@H](C)CNc2cc(-c3ccc(NCCCOC)nc3)ncn2)c(OC)c1 [Compound 375]
< 30 | COc1cc(C(=O)Nc2ccccc2)ccc1C(C)CNc1cc(-c2ccc(C)nc2)ncn1 (stereo not shown) [Compound 377]
< 30 | CC(CNc1cc(-c2cnc3c(cnn3CCO)c2)ncn1)c1cc(F)c(F)cc1OC1CCC1 (stereo not shown) [Compound 382]
< 30 | C=CCNc1ccc(-c2cc(NC[C@@H](C)c3ccc(C(=O)NC)cc3OC)ncn2)cn1 [Compound 387]
< 30 | CNC(=O)c1ccc([C@H](C)CNc2cc(-c3ccc(NC4CC4)nc3)ncn2)c(OC)c1 [Compound 388]
< 30 | C=C(C)CNc1ccc(-c2cc(NC[C@@H](C)c3ccc(C(=O)NC)cc3OC)ncn2)cn1 [Compound 389]
< 30 | CNC(=O)c1ccc([C@H](C)CNc2cc(-c3ccc(Nc4ccncc4)nc3)ncn2)c(OC)c1 [Compound 396]
< 30 | CC(CNc1cc(-c2cnc3c(cnn3CCO)c2)ncn1)c1ccnc2cccnc12 (stereo not shown) [Compound 400]
< 30 | CNc1ccccc1[C@H](C)CNc1cc(-c2ccc(C(=O)NCCC#N)nc2)ncn1 [Compound 408]
< 30 | Cc1ccc(-c2cc(NCC(C)c3cncc4cccnc34)ncn2)cn1 (stereo not shown) [Compound 414]
< 30 | Cc1ncc(-c2cc(NC[C@@H](C)c3ccnc4c3OCC4)ncn2)cn1 [Compound 416]
< 30 | CC(CNc1cc(-c2cnc3c(cnn3CCO)c2)ncn1)c1ccnc2ccoc12 (stereo not shown) [Compound 429]
< 30 | CNc1ncc(-c2cc(NC[C@@H](C)c3ccnc4c3OCC4)ncn2)cn1 [Compound 430]
< 30 | CC(CNc1cc(-c2ccc(C(=O)NCCC#N)cc2)ncn1)c1ccnc2cccnc12 (stereo not shown) [Compound 431]
< 30 | C[C@H](CNc1cc(-c2ccc(C(=O)NCCC#N)cc2)ncn1)c1ccnc2c1OCC2 [Compound 432]
< 30 | Cc1ccc(-c2cc(NCC(C)c3cccc4c3OCC(=O)N4)ncn2)cn1 (stereo not shown) [Compound 435]
< 30 | CNC(=O)c1ccc(C(C)CNc2cc(-c3cnc4c(cnn4CC#N)c3)ncn2)c(OC)c1 (stereo not shown) [Compound 441]
< 30 | Cc1ccc(-c2cc(NC[C@@H](C)c3cccc4nccnc34)ncn2)cn1 [Compound 445]
